# Strand notation (5' to 3'): a small letter for the sugar, then the base; units joined by * are phosphorothioate-linked, units joined directly phosphodiester-linked; [ ] holds rarer units or linkages, { } end groups; capitals alone tell only the bases. e = 2'-O-(2-methoxyethyl) (MOE); [5mC] = 5-methylcytosine; d = 2'-deoxy (DNA)
# How the values were obtained:
# Type in all cases: cell-based
# human Factor 7 mRNA [1] = experiment: Antisense inhibition of human Factor 7 mRNA in HepB3 cells, 50 nM antisense oligonucleotide, lipofectin
# Procedure, shortened: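 HepB3 cells were transfected by lipofectin with 50 nM antisense oligonucleotide and harvested after about 24 h. Factor 7 mRNA was measured by real-time RT-PCR (primer probe set RTS 2927 in some runs), normalized to RIBOGREEN total RNA, and reported as percent inhibition versus untreated control.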
# human Factor 7 mRNA [2] = experiment: Dose-dependent antisense inhibition of human Factor 7 in HepB3 cells, lipofectin; conditions: HepB3 cells, approx. 16 hours (Table 14)
# Method: Cells were plated at a density of 4,000 cells per well and treated with lipofectin reagent with 3.125 nM, 6.25 nM, 12.5 nM, 25 nM, 50 nM, and 100 nM concentrations of antisense oligonucleotide, as indicated in Table 3. After a treatment period of approximately 16 hours, RNA was isolated from the cells and Factor 7 mRNA levels were measured by real-time RT-PCR, as described herein. Human Factor 7 primer probe set RTS 2927 (forward sequence: […], incorporated herein as SEQ ID NO: 164; reverse sequence: […], incorporated herein as SEQ ID NO: 165; probe sequence: TGGGTGGTCTCCGCGGCCX, incorporated herein as SEQ ID NO: 166) was used to measure mRNA levels. Factor 7 mRNA levels were adjusted according to total RNA content as measured by RIBOGREEN®. Results are presented as percent inhibition of Factor 7, relative to untreated control cells.
# Cells were plated at a density of 4,000 cells per well and transfected using lipofectin reagent with 6.25 nM, 12.5 nM, 25.0 nM, 50.0 nM, and 100.0 nM concentrations of antisense oligonucleotide, as indicated in Table 7. After a treatment period of approximately 16 hours, RNA was isolated from the cells and Factor 7 mRNA levels were measured by real-time RT-PCR, as described herein. Human Factor 7 primer probe set RTS 2927 was used to measure mRNA levels. Factor 7 mRNA levels were adjusted according to total RNA content as measured by RIBOGREEN®. Results are presented as percent inhibition of Factor 7, relative to untreated control cells.
# (§1) Cells were plated at a density of 4,000 cells per well and transfected using lipofectin reagent with 3.125 nM, 6.25 nM, 12.5 nM, 25 nM, 50 nM, and 100 nM concentrations of antisense oligonucleotide, as specified in Table 14. After a treatment period of approximately 16 hours, RNA was isolated from the cells and Factor 7 mRNA levels were measured by quantitative real-time PCR. Human Factor 7 primer probe set RTS 2927 was used to measure mRNA levels. Factor 7 mRNA levels were adjusted according to total RNA content, as measured by RIBOGREEN®. Results are presented as percent inhibition of Factor 7, relative to untreated control cells.
# human Factor 7 mRNA [3] = experiment: Dose-dependent antisense inhibition of human Factor 7 in HepB3 cells, electroporation
# Method: as §1, with “The gapmers were also transfected via electroporation and their dose-dependent inhibition of human Factor 7 mRNA was measured. Cells” for “Cells”, “20,000” for “4,000”, “via electroporation” for “using lipofectin reagent”, “μM,” for “nM,”, “μM” for “nM”, “15.” for “14.”
# Cells were plated at a density of 20,000 cells per well and transfected via electroporation with 3.125 μM, 6.25 μM, 12.5 μM, 25 μM, 50 μM, and 100 μM concentrations of antisense oligonucleotide, as specified in […]. After a treatment period of approximately 16 hours, RNA was isolated from the cells and human Factor 7 mRNA levels were measured by quantitative real-time PCR. Human Factor 7 primer probe set RTS 2927 was used to measure mRNA levels. Factor 7 mRNA levels were adjusted according to total RNA content, as measured by RIBOGREEN®. Results are presented as percent inhibition of Factor 7, relative to untreated control cells.
# human Factor 7 mRNA [4] = experiment: Antisense inhibition of human Factor 7 with short (14-mer) oligonucleotides in HepB3 cells, electroporation 1,000 nM; conditions: electroporation, 1,000 nM antisense oligonucleotide, approximately 24 hours, Factor 7 mRNA relative to untreated control cells
# Procedure, shortened: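 14-mer 2-10-2 MOE gapmers (full phosphorothioate, 5-methyl-C) electroporated at 1,000 nM into HepB3 cells at 20,000 cells/well. After ~24 h, Factor 7 mRNA by real-time RT-PCR, normalized to RiboGreen total RNA. Reported as % inhibition relative to untreated cells.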
# [5] = 3.125 μM, approx. 16 hours (Table 15, Example 7)
# [6] = 6.25 μM, approx. 16 hours (Table 15, Example 7)
# [7] = 12.5 μM, approx. 16 hours (Table 15, Example 7)
# [8] = 25 μM, approx. 16 hours (Table 15, Example 7)
# [9] = 50 μM, approx. 16 hours (Table 15, Example 7)
# [10] = 100 μM, approx. 16 hours (Table 15, Example 7)
substance,measurement,setting,value
422142 (antisense eG*eA*eG*eT*eT*d[5mC]*dT*dG*d[5mC]*dA*dG*dG*dA*dG*d[5mC]*eG*eG*e[5mC]*e[5mC]*eT) [compound 422142],% Inhibition of human Factor 7 mRNA levels,"human Factor 7 mRNA [1]; gapmers targeted to nucleobases 4868 to 4899 of SEQ ID NO: 1, Table 8",73%
same,"percent inhibition of Factor 7 mRNA, relative to untreated control cells",human Factor 7 mRNA [2]; 3.125 nM,16%
same,"percent inhibition of Factor 7 mRNA, relative to untreated control cells",human Factor 7 mRNA [2]; 12.5 nM,51%
same,"percent inhibition of Factor 7 mRNA, relative to untreated control cells",human Factor 7 mRNA [2]; 25 nM,66%
same,"percent inhibition of Factor 7 mRNA, relative to untreated control cells",human Factor 7 mRNA [2]; 50 nM,72%
same,"percent inhibition of Factor 7 mRNA, relative to untreated control cells",human Factor 7 mRNA [2]; 100 nM,68%
same,"percent inhibition of Factor 7 mRNA, relative to untreated control cells",human Factor 7 mRNA [2],34%
same,"percent inhibition of Factor 7 mRNA, relative to untreated control cells",human Factor 7 mRNA [3]; [5],26%
same,"percent inhibition of Factor 7 mRNA, relative to untreated control cells","human Factor 7 mRNA [3]; 3.125 μM, approx. 16 hours (Table 16, Example 8 confirmation)",34%
same,"percent inhibition of Factor 7 mRNA, relative to untreated control cells",human Factor 7 mRNA [3]; [6],47%
same,"percent inhibition of Factor 7 mRNA, relative to untreated control cells","human Factor 7 mRNA [3]; 6.25 μM, approx. 16 hours (Table 16, Example 8 confirmation)",47%
same,"percent inhibition of Factor 7 mRNA, relative to untreated control cells",human Factor 7 mRNA [3]; [7],63%
same,"percent inhibition of Factor 7 mRNA, relative to untreated control cells","human Factor 7 mRNA [3]; 12.5 μM, approx. 16 hours (Table 16, Example 8 confirmation)",62%
same,"percent inhibition of Factor 7 mRNA, relative to untreated control cells",human Factor 7 mRNA [3]; [8],67%
same,"percent inhibition of Factor 7 mRNA, relative to untreated control cells","human Factor 7 mRNA [3]; 25 μM, approx. 16 hours (Table 16, Example 8 confirmation)",67%
same,"percent inhibition of Factor 7 mRNA, relative to untreated control cells",human Factor 7 mRNA [3]; [9],77%
same,"percent inhibition of Factor 7 mRNA, relative to untreated control cells","human Factor 7 mRNA [3]; 50 μM, approx. 16 hours (Table 16, Example 8 confirmation)",65%
same,"percent inhibition of Factor 7 mRNA, relative to untreated control cells",human Factor 7 mRNA [3]; [10],78%
same,"percent inhibition of Factor 7 mRNA, relative to untreated control cells","human Factor 7 mRNA [3]; 100 μM, approx. 16 hours (Table 16, Example 8 confirmation)",65%
422096 (antisense eA*eG*eA*e[5mC]*eA*dA*dT*dG*dG*dT*d[5mC]*dA*dG*dG*dG*e[5mC]*eT*eG*eG*eT) [compound 422096],% Inhibition (human Factor 7 mRNA levels),human Factor 7 mRNA [1]; oligonucleotides targeted to nucleobases 11830 to 11869 of SEQ ID NO: 1 (Table 9),76%
same,"percent inhibition of Factor 7 mRNA, relative to untreated control cells",human Factor 7 mRNA [2]; 3.125 nM,17%
same,"percent inhibition of Factor 7 mRNA, relative to untreated control cells",human Factor 7 mRNA [2]; 12.5 nM,43%
same,"percent inhibition of Factor 7 mRNA, relative to untreated control cells",human Factor 7 mRNA [2]; 25 nM,60%
same,"percent inhibition of Factor 7 mRNA, relative to untreated control cells",human Factor 7 mRNA [2]; 50 nM,68%
same,"percent inhibition of Factor 7 mRNA, relative to untreated control cells",human Factor 7 mRNA [2]; 100 nM,82%
same,"percent inhibition of Factor 7 mRNA, relative to untreated control cells",human Factor 7 mRNA [2],23%
same,"percent inhibition of Factor 7 mRNA, relative to untreated control cells",human Factor 7 mRNA [3]; [5],26%
same,"percent inhibition of Factor 7 mRNA, relative to untreated control cells",human Factor 7 mRNA [3]; [6],30%
same,"percent inhibition of Factor 7 mRNA, relative to untreated control cells",human Factor 7 mRNA [3]; [7],46%
same,"percent inhibition of Factor 7 mRNA, relative to untreated control cells",human Factor 7 mRNA [3]; [8],50%
same,"percent inhibition of Factor 7 mRNA, relative to untreated control cells",human Factor 7 mRNA [3]; [9],62%
same,"percent inhibition of Factor 7 mRNA, relative to untreated control cells",human Factor 7 mRNA [3]; [10],85%
422252 (antisense e[5mC]*eG*d[5mC]*d[5mC]*dG*dG*d[5mC]*dT*d[5mC]*dT*dG*d[5mC]*dT*d[5mC]*dA*eT*e[5mC]*e[5mC]*e[5mC]*e[5mC]) [compound 422252],% Inhibition (human Factor 7 mRNA levels),human Factor 7 mRNA [1]; oligonucleotides targeted to nucleobases 13760 to 13789 of SEQ ID NO: 1 (Table 10),70%
same,"percent inhibition of Factor 7 mRNA, relative to untreated control cells",human Factor 7 mRNA [2]; 3.125 nM,18%
same,"percent inhibition of Factor 7 mRNA, relative to untreated control cells",human Factor 7 mRNA [2]; 12.5 nM,45%
same,"percent inhibition of Factor 7 mRNA, relative to untreated control cells",human Factor 7 mRNA [2]; 25 nM,61%
same,"percent inhibition of Factor 7 mRNA, relative to untreated control cells",human Factor 7 mRNA [2]; 50 nM,77%
same,"percent inhibition of Factor 7 mRNA, relative to untreated control cells",human Factor 7 mRNA [2]; 100 nM,87%
same,"percent inhibition of Factor 7 mRNA, relative to untreated control cells",human Factor 7 mRNA [2],17%
same,"percent inhibition of Factor 7 mRNA, relative to untreated control cells",human Factor 7 mRNA [3]; [5],23%
same,"percent inhibition of Factor 7 mRNA, relative to untreated control cells",human Factor 7 mRNA [3]; [6],12%
same,"percent inhibition of Factor 7 mRNA, relative to untreated control cells",human Factor 7 mRNA [3]; [7],26%
same,"percent inhibition of Factor 7 mRNA, relative to untreated control cells",human Factor 7 mRNA [3]; [8],38%
same,"percent inhibition of Factor 7 mRNA, relative to untreated control cells",human Factor 7 mRNA [3]; [9],58%
same,"percent inhibition of Factor 7 mRNA, relative to untreated control cells",human Factor 7 mRNA [3]; [10],80%
435785 (antisense eA*eG*d[5mC]*dT*dT*d[5mC]*dT*d[5mC]*dA*d[5mC]*d[5mC]*dA*e[5mC]*eG) [compound 435785],% Inhibition,human Factor 7 mRNA [4],46%
435715 (antisense e[5mC]*eA*dG*d[5mC]*d[5mC]*dA*d[5mC]*dT*d[5mC]*dG*dA*dT*eG*eT) [compound 435715],% Inhibition,human Factor 7 mRNA [4],35%
435820 (antisense e[5mC]*eA*dT*d[5mC]*d[5mC]*dT*dA*dG*dT*d[5mC]*dA*d[5mC]*eT*eG) [compound 435820],% Inhibition,human Factor 7 mRNA [4],19%
435698 (antisense e[5mC]*e[5mC]*dT*dT*dG*d[5mC]*dA*dG*dG*dA*dG*dT*e[5mC]*e[5mC]) [compound 435698],% Inhibition,human Factor 7 mRNA [4],61%
435811 (antisense eG*eT*dG*dG*dT*d[5mC]*dA*dA*dG*dG*dA*dT*eG*eA) [compound 435811],% Inhibition,human Factor 7 mRNA [4],27%
435677 (antisense eG*eT*dG*d[5mC]*dT*d[5mC]*dG*d[5mC]*d[5mC]*d[5mC]*dA*dG*e[5mC]*eA) [compound 435677],% Inhibition,human Factor 7 mRNA [4],60%
435686 (antisense e[5mC]*eA*dG*dT*dG*dA*dG*dG*dA*d[5mC]*d[5mC]*dA*e[5mC]*eG) [compound 435686],% Inhibition,human Factor 7 mRNA [4],31%
435635 (antisense e[5mC]*eA*dT*dG*dA*dT*dG*dA*dA*dA*dT*d[5mC]*eT*e[5mC]) [compound 435635],% Inhibition,human Factor 7 mRNA [4],0%
435736 (antisense eA*eT*dG*d[5mC]*dA*dT*dG*dG*dT*dG*dA*dT*eG*e[5mC]) [compound 435736],% Inhibition,human Factor 7 mRNA [4],50%
435792 (antisense eT*eG*d[5mC]*dT*dG*dA*dA*dG*dA*dA*dA*d[5mC]*eT*eG) [compound 435792],% Inhibition,human Factor 7 mRNA [4],9%
435493 (antisense eG*eA*d[5mC]*d[5mC]*d[5mC]*dT*dG*dG*dT*dG*dT*dA*e[5mC]*eA) [compound 435493],% Inhibition,human Factor 7 mRNA [4],58%
435680 (antisense eG*eT*dG*d[5mC]*dT*d[5mC]*dG*d[5mC]*dT*dG*dA*dG*eG*eT) [compound 435680],% Inhibition,human Factor 7 mRNA [4],52%
435764 (antisense eT*eG*dA*dG*dA*dG*d[5mC]*dT*dG*d[5mC]*dA*d[5mC]*e[5mC]*eT) [compound 435764],% Inhibition,human Factor 7 mRNA [4],8%
